Assay results reported in patent US20250320224A1 (DOMAIN THERAPEUTICS, priority 2022, published 2025).

Biological target: T1, human PAR-2 (hPAR-2) receptor (Homo sapiens, UniProt P55085)
T1 construct: expressed in HEK-293 cells in an endogenous manner; endogenous in cells; host or cells: HEK-293
T1 sequence (P55085 26-397): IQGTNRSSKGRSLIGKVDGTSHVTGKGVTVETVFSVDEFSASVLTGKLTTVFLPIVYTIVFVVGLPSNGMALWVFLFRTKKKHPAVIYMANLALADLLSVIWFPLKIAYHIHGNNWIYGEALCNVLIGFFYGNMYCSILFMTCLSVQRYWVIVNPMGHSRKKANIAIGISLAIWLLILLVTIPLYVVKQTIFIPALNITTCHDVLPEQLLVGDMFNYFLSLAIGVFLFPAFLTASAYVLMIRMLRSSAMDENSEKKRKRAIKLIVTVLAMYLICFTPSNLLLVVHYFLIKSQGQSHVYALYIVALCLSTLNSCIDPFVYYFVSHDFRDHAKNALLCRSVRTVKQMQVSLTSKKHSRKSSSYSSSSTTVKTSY
Assay: In vitro human PAR-2 functional antagonist activity using calcium assays
Format: cell-based
Settings: hPAR-2 endogenously expressed in HEK-293 cells; stimulated by 2-Furoyl-LIGRLO-NH2 peptide; Fluo4AM intracellular calcium, FLIPR Tetra
Description: Example 283: In Vitro Human PAR-2 Functional Antagonist Activity Using Calcium Assays
Examples of the present invention were tested successively for their agonist and antagonist activities on human PAR-2 (hPAR-2) receptor expressed in HEK-293 cells in an endogenous manner. Compounds exert agonist activity if, by themselves in absence of the 2-Furoyl-LIGRLO-NH2 peptide (selective hPAR-2 agonist), they activate PAR-2; they exert antagonist activity if they decrease the action of the 2-Furoyl-LIGRLO-NH2 peptide on the receptor. The assay used to determine compound activity is based on calcium measurement.
Cell Culture: HEK-293 cells were maintained in Dulbecco's Modified Eagle's Medium supplemented with 10% Foetal Calf Serum, 1% Penicillin/Streptomycin at 37° C./5% CO2. Flasks for tests (F75) are seeded with 6e+06 cells 24 h before the experiment at 37° C./5% CO2.
Calcium assay: Receptor activity was detected by changes in intracellular calcium measured using the fluorescent Ca^2+ sensitive dye, Fluo4AM (Molecular Probes).
The day of the assay, medium was replaced by assay buffer (HBSS 1× (Gibco 14175-053), Hepes 20 mM, MgSO4-7H2O 1 mM, Na2CO3 3.3 mM, CaCl2—2H2O 2.6 mM, 0.5% bovine serum albumin (BSA), Probenecid 2.5 mM, 0.1 mg/mL Pluronic Acid) and complemented with 1 μM Fluo4AM and cells were incubated during 1:30 h at 37° C.
Cells were then detached, resuspended in assay buffer and seeded in 384 wells, transparent-flat bottom black walled plates (2e+04 cells per well). Plates were incubated at +22° C. for 20 min. Compounds stock solutions were prepared in 100% DMSO and dilutions in test buffer were carried out in polypropylene plates with a digital dispenser (D300e, Tecan). Compounds were added to the cells and intracellular Ca^2+ measurements were collected at the same time on FLIPR Tetra® (Molecular Devices) with specific filters (Exc: 470-495 nm/Em: 515-575 nm).
Agonist and antagonist activities of compounds were consecutively evaluated on the same cell plate. Agonist activity was first measured after 10 min incubation with the compound alone. Then, cells were stimulated by an […] of the 2-Furoyl-LIGRLO-NH2 peptide and fluorescence was recorded for an additional 5 min. EC50 of the 2-Furoyl-LIGRLO-NH2 peptide was the concentration giving 80% of the maximal 2-Furoyl-LIGRLO-NH2 response. Agonist activities are evaluated in comparison to basal signals evoked by assay buffer or maximal 2-Furoyl-LIGRLO-NH2 response. […] Antagonist activities are evaluated in comparison to basal signals evoked by assay buffer or EC50 of 2-Furoyl-LIGRLO-NH2 alone.

| SMILES | IC50 |
| --- | --- |
| CC(C)CN1CC(C)(c2ccc(Cl)c(F)c2)c2ccc(C(=O)N3CCN(c4ccc(CC(=O)O)cn4)CC3(C)C)nc21 (centres unmarked) [Example 257, 2-(6-(4-(3-(4-chloro-3-fluorophenyl)-1-isobutyl-3-methyl-2,3-dihydro-1H-pyrrolo[2,3-b]pyridine-6-carbonyl)-3,3-dimethylpiperazin-1-yl)pyridin-3-yl)acetic acid] | 500 to 10000 nM |
| CC1(C)CN(C2CCC(C#N)CC2)c2ccc(C(=O)N3CCN(c4ccc(CC(=O)O)cn4)CC3(C)C)nc21 (centres unmarked) [Example 169, 2-(6-(4-(1-(4-cyanocyclohexyl)-3,3-dimethyl-2,3-dihydro-1H-pyrrolo[3,2-b]pyridine-5-carbonyl)-3,3-dimethylpiperazin-1-yl)pyridin-3-yl)acetic acid] | 500 to 10000 nM |
| CC1(C)CN(CCc2ccc(F)cc2)c2ncc(C(=O)N3CCN(c4ccc(CC(=O)O)cn4)CC3(C)C)nc21 [Example 211, 2-(6-(4-(5-(4-fluorophenethyl)-7,7-dimethyl-6,7-dihydro-5H-pyrrolo[2,3-b]pyrazine-2-carbonyl)-3,3-dimethylpiperazin-1-yl)pyridin-3-yl)acetic acid] | 500 to 10000 nM |
| CC1(C)C(=O)NCCN1C(=O)c1ccc2c(n1)[C@]1(C)CCO[C@@H]1N2c1ccc(Cl)c(F)c1 (single isomer, unassigned) [Example 63] | 500 to 10000 nM |
| CC1(C)CN(c2ccc(Cl)c(F)c2)c2ccc(C(=O)N3CCC4(CCNC4=O)CC3)nc21 [Example 75, 8-(1-(4-chloro-3-fluorophenyl)-3,3-dimethyl-2,3-dihydro-1H-pyrrolo[3,2-b]pyridine-5-carbonyl)-2,8-diazaspiro[4.5]decan-1-one] | 500 to 10000 nM |
| CC1(C)CN(c2ccc(Cl)c(F)c2)c2ccc(C(=O)N3CC4(C3)CN(c3ccc(C(=O)O)cn3)C4)nc21 [Example 123, 6-(6-(1-(4-chloro-3-fluorophenyl)-3,3-dimethyl-2,3-dihydro-1H-pyrrolo[3,2-b]pyridine-5-carbonyl)-2,6-diazaspiro[3.3]heptan-2-yl)nicotinic acid] | > 10000 nM |
| CC1(C)CN(c2ccc(Cl)c(F)c2)c2ccc(C(=O)N3CCN(c4nc(C(=O)N5CCC(O)CC5)cs4)CC3(C)C)nc21 [Example 81, (1-(4-chloro-3-fluorophenyl)-3,3-dimethyl-2,3-dihydro-1H-pyrrolo[3,2-b]pyridin-5-yl)(4-(4-(4-hydroxypiperidine-1-carbonyl)thiazol-2-yl)-2,2-dimethylpiperazin-1-yl)methanone] | < 500 nM |
| CC1(C)CN(c2ccc(Cl)c(F)c2)c2ccc(C(=O)N3CCN(C(=O)CCCC(=O)O)CC3(C)C)nc21 [Example 28, 5-(4-(1-(4-chloro-3-fluorophenyl)-3,3-dimethyl-2,3-dihydro-1H-pyrrolo[3,2-b]pyridine-5-carbonyl)-3,3-dimethylpiperazin-1-yl)-5-oxopentanoic acid] | 500 to 10000 nM |
| CC1(C)CN(c2cc(F)c(Cl)c(F)c2)c2ncc(C(=O)N3CCN(c4ccc(CC(=O)O)cn4)CC3(C)C)nc21 [Example 241, 2-(6-(4-(5-(4-chloro-3,5-difluorophenyl)-7,7-dimethyl-6,7-dihydro-5H-pyrrolo[2,3-b]pyrazine-2-carbonyl)-3,3-dimethylpiperazin-1-yl)pyridin-3-yl)acetic acid] | < 500 nM |
| CCC1(C)CN(c2ccc(Cl)c(F)c2)c2ccc(C(=O)N3CCNC(=O)C3(C)C)nc21 (centres unmarked) [Example 53, 4-(1-(4-chloro-3-fluorophenyl)-3-ethyl-3-methyl-2,3-dihydro-1H-pyrrolo[3,2-b]pyridine-5-carbonyl)-3,3-dimethylpiperazin-2-one] | < 500 nM |
| CC1(C)CN(c2ccc(Cl)c(F)c2)c2ccc(C(=O)N3CCNC(=O)C3(C)C)nc21 [Example 18, 4-(1-(4-chloro-3-fluorophenyl)-3,3-dimethyl-2,3-dihydro-1H-pyrrolo[3,2-b]pyridine-5-carbonyl)-3,3-dimethylpiperazin-2-one] | < 500 nM |

The next lines start with the values.

| IC50 | SMILES |
| --- | --- |
| < 500 nM | CN(C)C(=O)c1csc(N2CCN(C(=O)c3ccc4c(n3)C(C)(C)CN4c3ccc(Cl)c(F)c3)C(C)(C)C2)n1 [Example 80, 2-(4-(1-(4-chloro-3-fluorophenyl)-3,3-dimethyl-2,3-dihydro-1H-pyrrolo[3,2-b]pyridine-5-carbonyl)-3,3-dimethylpiperazin-1-yl)-N,N-dimethylthiazole-4-carboxamide] |
| < 500 nM | CC1(C)CCN(c2ccc(Cl)c(F)c2)c2ccc(C(=O)N3CCN(c4ccc(CC(=O)O)cn4)CC3(C)C)nc21 [Example 177, 2-(6-(4-(5-(4-chloro-3-fluorophenyl)-8,8-dimethyl-5,6,7,8-tetrahydro-1,5-naphthyridine-2-carbonyl)-3,3-dimethylpiperazin-1-yl)pyridin-3-yl)acetic acid] |
| < 500 nM | CC1(C)CN(c2ccc(Cl)c(F)c2)c2ccc(C(=O)N3CCN(c4cncc(C(=O)O)c4)CC3(C)C)nc21 [Example 151, 5-(4-(1-(4-chloro-3-fluorophenyl)-3,3-dimethyl-2,3-dihydro-1H-pyrrolo[3,2-b]pyridine-5-carbonyl)-3,3-dimethylpiperazin-1-yl)nicotinic acid] |
| < 500 nM | CC1(C)CN(c2ccc(Cl)c(F)c2)c2ncc(C(=O)N3CCN(c4ccc(CC(=O)O)cn4)CC3(C)C)nc21 [Example 173, 2-(6-(4-(5-(4-chloro-3-fluorophenyl)-7,7-dimethyl-6,7-dihydro-5H-pyrrolo[2,3-b]pyrazine-2-carbonyl)-3,3-dimethylpiperazin-1-yl)pyridin-3-yl)acetic acid] |
| < 500 nM | CC1(C)CC2(CN(c3ccc(Cl)c(F)c3)c3ncc(C(=O)N4CCN(C(=O)CCCCCCC(=O)O)CC4(C)C)nc32)C1 [Example 260, 8-(4-(5′-(4-chloro-3-fluorophenyl)-3,3-dimethyl-5′,6′-dihydrospiro[cyclobutane-1,7′-pyrrolo[2,3-b]pyrazine]-2′-carbonyl)-3,3-dimethylpiperazin-1-yl)-8-oxooctanoic acid] |
| < 500 nM | CC1(C)CC2(CN(c3ccc(F)c(F)c3)c3ncc(C(=O)N4CCNC(=O)C4(C)C)nc32)C1 [Example 282, 4-(5′-(3,4-difluorophenyl)-3,3-dimethyl-5′,6′-dihydrospiro[cyclobutane-1,7′-pyrrolo[2,3-b]pyrazine]-2′-carbonyl)-3,3-dimethylpiperazin-2-one] |
| < 500 nM | Cc1cc(N2CCN(C(=O)c3ccc4c(n3)C3(C=C(F)C3)CN4c3ccc(Cl)c(F)c3)C(C)(C)C2)nc(C)c1C(=O)O (centres unmarked) [Example 90, 6-(4-(1′-(4-chloro-3-fluorophenyl)-3-fluoro-1′,2′-dihydrospiro[cyclobutane-1,3′-pyrrolo[3,2-b]pyridin]-2-en-5′-carbonyl)-3,3-dimethylpiperazin-1-yl)-2,4-dimethylnicotinic acid] |
| < 500 nM | CC1(C)CN(c2ccc(C(F)(F)F)c(Cl)c2)c2ncc(C(=O)N3CCN(c4ccc(CC(=O)O)cn4)CC3(C)C)nc21 [Example 219, 2-(6-(4-(5-(3-chloro-4-(trifluoromethyl)phenyl)-7,7-dimethyl-6,7-dihydro-5H-pyrrolo[2,3-b]pyrazine-2-carbonyl)-3,3-dimethylpiperazin-1-yl)pyridin-3-yl)acetic acid] |
| < 500 nM | CC1(C)CC2(CN(c3ccc(F)c(F)c3)c3ncc(C(=O)N4CCN(c5ccc(CC(=O)O)cn5)CC4(C)C)nc32)C1 [Example 245, 2-(6-(4-(5′-(3,4-difluorophenyl)-3,3-dimethyl-5′,6′-dihydrospiro[cyclobutane-1,7′-pyrrolo[2,3-b]pyrazine]-2′-carbonyl)-3,3-dimethylpiperazin-1-yl)pyridin-3-yl)acetic acid] |
